Assay results reported in patent US20260008862A1, “Bispecific Anti-BCMA x Anti-CD3 Antibodies and Uses Thereof” (Regeneron Pharmaceuticals, Inc., priority 2018, published 2026).
Read-outs that look alike come from different tables or passages of the source.

Tests used:
[1] = test system: MC38/BCMA tumors; experiment: Syngenic MC38/BCMA tumor model, combination with anti-PD-1 (Example 20); assay type: in vivo; settings: REGN5458 0.04 or 0.24 mg/kg plus anti-mouse PD-1 (Clone RPM1-14) 4 mg/kg
Procedure: (§1) Implantation and measurement of syngenic tumors: C57BL/6 mice that express human CD3deg in place of murine CD3deg (CD3-humanized mice) were subcutaneously implanted with 1×10^6 MC38 colon carcinoma cells that have been engineered to express full-length human BCMA (MC38/BCMA).
The mice were administered these Abs twice more on days 7 and 11 for a total of three doses, and tumor growth was assessed throughout the experiment.
(§2) Calculation of syngenic tumor growth and inhibition: In order to determine tumor volume by external caliper, the greatest longitudinal diameter (length in mm) and the greatest transverse diameter (width in mm) were determined. Tumor volumes based on caliper measurements were calculated by the formula: Volume (mm^3)=(length×width^2)/2.

[2] = test system: MC38/BCMA tumors; experiment: Syngenic MC38/BCMA tumor model, combination with anti-PD-1, second experiment (Example 21); assay type: in vivo, mouse; settings: REGN5458 0.04 or 0.4 mg/kg plus anti-PD-1 4 mg/kg
Source text: as §1, §2

[3] = test system: B16/BCMA tumors; experiment: Syngenic B16/BCMA tumor model in CD3-humanized mice (Example 16); assay type: in vivo, mouse; settings: for Average Tumor Size (mm3) ± SEM on Day 5 / Average Tumor Size (mm3) ± SEM on Day 10 / Average Tumor Size (mm3) ± SEM on Day 14 / Average Tumor Size (mm3) ± SEM on Day 18: B16/BCMA Tumor
Procedure: To determine the in vivo efficacy of anti-BCMA×anti-CD3 bispecific antibodies (Abs), a syngenic tumor study was performed in mice expressing human CD3. C57BL/6 mice that express human CD3deg in place of murine CD3deg (CD3-humanized mice) were subcutaneously implanted with either 0.5×10^6 B16 melanoma cells that have been engineered to express full-length human BCMA (B16/BCMA cells) or 1×10^6 MC38 colon carcinoma cells that have been engineered to express full-length human BCMA (MC38/BCMA). […] The mice were administered these Abs twice more on days 4 and 7 for a total of three doses, and tumor growth was assessed throughout the experiment.
Implantation and measurement of syngenic tumors: C57BL/6 mice that express human CD3deg in place of murine CD3deg (CD3-humanized mice) were subcutaneously implanted with either 0.5×10^6 B16F10 melanoma cells that have been engineered to express full-length human BCMA (B16/BCMA cells) or 1×10^6 MC38 colon carcinoma cells that have been engineered to express full-length human BCMA (MC38/BCMA). […] The mice were administered these Abs twice more on days 4 and 7 for a total of three doses, and tumor growth was assessed throughout the experiment.
as §2

[4] = test system: primary human plasma cells (CD138+); experiment: Autologous T cell-mediated killing of human plasma cells; assay type: cell-based
Procedure: (§3) The specific killing of enriched CD138^+ human or cynomolgus monkey plasma cells by unstimulated autologous T cells was assessed by flow cytometry. Human or cynomolgus bone marrow aspirates and blood were provided within 24 hours of harvest. CD138^+ plasma cells were enriched from bone marrow by positive selection using the EasySep™ Human CD138^+ Positive Selection kit according to the manufacturer's instructions. PBMC from whole blood were isolated by density separation. PBMC were labeled with 1 μM of Vybrant™ CFDA-SE fluorescent tracking dye. […] At the end of the culture, surviving CD138^+ plasma cells were analyzed by flow cytometry, utilizing fixable LIVE/DEAD dye and plasma cell specific cell surface markers. Percent viability was normalized to control condition (plasma cells in the presence of PBMC only). T cell activation was assessed by flow cytometry. Activation is reported as the percentage of CD2^+/CD4^+ or CD2^+/CD8^+/CD16^− T cells expressing CD25. Percent T cell activation was normalized to control condition (plasma cells in the presence of PBMC only).

[5] = test system: primary cynomolgus plasma cells (CD138+); experiment: Autologous T cell-mediated killing of cynomolgus monkey plasma cells; assay type: cell-based
Procedure: as §3

[6] = biological target: T1, human BCMA-MFC (Homo sapiens, UniProt Q02223); experiment: SPR (Biacore 4000) binding kinetics to human BCMA-MFC; settings: 25° C.
T1 construct: (human BCMA-MFC); made in house
Procedure: (§4) The CM5 Biacore sensor surface was derivatized by amine coupling with a monoclonal mouse anti-human Fc antibody (GE, #BR-11008-39) to capture purified anti-BCMA mAbs and anti-BCMA×anti-CD3 bispecific mAbs. All Biacore binding studies were performed in a buffer composed of 0.01 M HEPES pH 7.4, 0.15M NaCl, 3 mM EDTA, 0.05% v/v Surfactant P20 (HBS-ET running buffer). […] Antigen samples were then injected over the anti-BCMA and anti-BCMA×anti-CD3 bispecific mAbs captured surfaces at a flow rate of 30 μL/minute. Antibody-reagent association was monitored for 5 minutes while dissociation in HBS-ET running buffer was monitored for 10 minutes. All of the binding kinetics experiments were performed at 25° C. Kinetic association (ka) and dissociation (kd) rate constants were determined by fitting the real-time sensorgrams to a 1:1 binding model using Scrubber 2.0c curve fitting software. Binding dissociation equilibrium constants (KD) and dissociative half-lives (t½) were calculated from the kinetic rate constants as: […]

[7] = biological target: T2, human BCMA-MMH (Homo sapiens, UniProt Q02223); experiment: SPR (Biacore 4000) binding kinetics to human BCMA-MMH; settings: 25° C.
T2 construct: (human BCMA-MMH); myc-myc-hexahistidine (C); made in house
Procedure: as §4

[8] = Cynomolgus Monkey Donor 1 plasma cells, autologous T cells, maximum

T2 sequence (Q02223 with tags, fused parts or gaps): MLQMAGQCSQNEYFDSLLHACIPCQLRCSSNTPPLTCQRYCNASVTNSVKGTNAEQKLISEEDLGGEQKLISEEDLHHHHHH
T1 sequence (Q02223 with tags, fused parts or gaps): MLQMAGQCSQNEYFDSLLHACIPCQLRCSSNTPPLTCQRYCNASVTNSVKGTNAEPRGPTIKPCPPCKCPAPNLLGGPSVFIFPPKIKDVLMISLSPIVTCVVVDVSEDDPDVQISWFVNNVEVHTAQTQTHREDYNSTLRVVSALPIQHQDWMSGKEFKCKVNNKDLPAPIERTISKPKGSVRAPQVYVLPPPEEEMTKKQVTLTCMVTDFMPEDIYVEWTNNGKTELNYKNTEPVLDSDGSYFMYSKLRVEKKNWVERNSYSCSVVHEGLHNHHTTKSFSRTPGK

## REGN5458: anti-BCMA×anti-CD3 bispecific antibody: BCMA HCVR of mAb21581 (SEQ 66), CD3 HCVR of mAb7221G (SEQ 90), common LCVR SEQ 82
[1]
  anti-tumor efficacy of the combination (in words): superior anti-tumor efficacy
[2]
  anti-tumor efficacy of the combination (in words): superior anti-tumor efficacy
[3]; 0.04 mg/kg
  Average Tumor Size (mm3) ± SEM on Day 5: 3.3 ± 2.2 mm3
  Average Tumor Size (mm3) ± SEM on Day 10: 15.4 ± 12.5 mm3
  Average Tumor Size (mm3) ± SEM on Day 14: 81.4 ± 49.2 mm3
  Average Tumor Size (mm3) ± SEM on Day 18: 127.2 ± 63.9 mm3
[3]; 0.4 mg/kg
  Average Tumor Size (mm3) ± SEM on Day 5: 0.0 ± 0.0 mm3
  Average Tumor Size (mm3) ± SEM on Day 10: 0.0 ± 0.0 mm3
  Average Tumor Size (mm3) ± SEM on Day 14: 8.1 ± 4.4 mm3
  Average Tumor Size (mm3) ± SEM on Day 18: 47.1 ± 17.0 mm3
[3]; B16/BCMA, 0.4 or 0.04 mg/kg, three doses
  tumor growth (in words): suppress the growth of both tumor lines in a dose-dependent manner
[4]; Human Donor 1 plasma cells, autologous primary human T cells, E:T 10:1, 72 hours
  Cytotoxic Kill Max % Cytotoxicity: 91%
[4]; Human Donor 1 plasma cells, autologous primary human T cells, read-out: T Cell Activation (% CD25 Upregulation) CD8+ T cells EC50
  EC50: 0.214 nM
[4]; Human Donor 2 plasma cells, autologous primary human T cells, E:T 10:1, 72 hours
  Cytotoxic Kill Max % Cytotoxicity: 89%
[4]; Human Donor 2 plasma cells, autologous primary human T cells, E:T 10:1, 72 hours, read-out: Cytotoxic Kill EC50
  EC50: 0.191 nM
[4]; Human Donor 2 plasma cells, autologous primary human T cells, maximum
  T Cell Activation (% CD25 Upregulation) CD8+ T cells % Activation: 36%
[4]; human donor 1
  maximum percent cytotoxicity: 91%
[4]; human donor 1, CD25, read-out: CD8+ T cell activation EC50
  EC50: 0.214 nM
[4]; human donor 1, read-out: cytotoxicity EC50
  EC50: 0.0428 nM
[4]; human donor 2
  maximum percent CD8+ T cell activation: 36%
  maximum percent cytotoxicity: 89%
[4]; human donor 2, CD25, read-out: CD8+ T cell activation EC50
  EC50: 0.86 nM
[4]; human donor 2, read-out: cytotoxicity EC50
  EC50: 0.191 nM
[5]; [8]
  T Cell Activation (% CD25 Upregulation) CD4+ T cells % Activation: 9%
  T Cell Activation (% CD25 Upregulation) CD8+ T cells % Activation: 12%
[5]; Cynomolgus Monkey Donor 1 plasma cells, autologous T cells, read-out: T Cell Activation (% CD25 Upregulation) CD8+ T cells EC50
  EC50: 22.4 nM
[5]; Cynomolgus Monkey Donor 1 plasma cells, autologous primary cynomolgus T cells, E:T 10:1, 72 hours
  Cytotoxic Kill Max % Cytotoxicity: 94%
[5]; Cynomolgus Monkey Donor 1 plasma cells, autologous primary cynomolgus T cells, E:T 10:1, 72 hours, read-out: Cytotoxic Kill EC50
  EC50: 1.31 nM
[5]; Cynomolgus Monkey Donor 2 plasma cells, autologous T cells, maximum
  T Cell Activation (% CD25 Upregulation) CD4+ T cells % Activation: 16%
[5]; Cynomolgus Monkey Donor 2 plasma cells, autologous T cells, read-out: T Cell Activation (% CD25 Upregulation) CD4+ T cells EC50
  EC50: ~18.1 nM
[5]; Cynomolgus Monkey Donor 2 plasma cells, autologous primary cynomolgus T cells, E:T 10:1, 72 hours
  Cytotoxic Kill Max % Cytotoxicity: 91%
[5]; cynomolgus donor 1
  maximum percent T cell activation, CD4+ T cells: 9%
  maximum percent T cell activation, CD8+ T cells: 12%
  maximum percent cytotoxicity: 94%
[5]; cynomolgus donor 1, read-out: CD4+ T cell activation EC50
  EC50: 28.1 nM
[5]; cynomolgus donor 1, read-out: CD8+ T cell activation EC50
  EC50: 22.4 nM
[5]; cynomolgus donor 1, read-out: cytotoxicity EC50
  EC50: 1.31 nM
[5]; cynomolgus donor 2
  maximum percent T cell activation, CD4+ T cells: 16%
  maximum percent cytotoxicity: 91%
[5]; cynomolgus donor 2, read-out: CD4+ T cell activation EC50
  EC50: 18.1 nM
[5]; cynomolgus donor 2, read-out: CD8+ T cell activation EC50
  EC50: 76.7 nM

## REGN5459: anti-BCMA×anti-CD3 bispecific antibody: BCMA HCVR of mAb21581 (SEQ 66), CD3 HCVR of mAb7221G20 (SEQ 98), common LCVR SEQ 82
[6]
  ka: 449000 M⁻¹ s⁻¹
  kd: ≤1e-05 s⁻¹
[7]
  ka: 730000 M⁻¹ s⁻¹
  kd: 0.00101 s⁻¹
